This is an account of results in patent US20080255168A1, “METHODS FOR ADMINISTERING DPD INHIBITORS IN COMBINATION WITH 5-FU AND 5-FU PRODRUGS” (ADHEREX TECHNOLOGIES, INC., priority 2004, published 2008).

Where two headings read alike, the source gives them in different places. Some results are limits rather than exact numbers.

One series addresses T1, DPD (Homo sapiens, UniProt Q12882).
T1 construct: 24 hours after one dose of eniluracil, the level of DPD was only 3% of the predose level; host or cells: cancer patients
T1 sequence (Q12882 4-1025): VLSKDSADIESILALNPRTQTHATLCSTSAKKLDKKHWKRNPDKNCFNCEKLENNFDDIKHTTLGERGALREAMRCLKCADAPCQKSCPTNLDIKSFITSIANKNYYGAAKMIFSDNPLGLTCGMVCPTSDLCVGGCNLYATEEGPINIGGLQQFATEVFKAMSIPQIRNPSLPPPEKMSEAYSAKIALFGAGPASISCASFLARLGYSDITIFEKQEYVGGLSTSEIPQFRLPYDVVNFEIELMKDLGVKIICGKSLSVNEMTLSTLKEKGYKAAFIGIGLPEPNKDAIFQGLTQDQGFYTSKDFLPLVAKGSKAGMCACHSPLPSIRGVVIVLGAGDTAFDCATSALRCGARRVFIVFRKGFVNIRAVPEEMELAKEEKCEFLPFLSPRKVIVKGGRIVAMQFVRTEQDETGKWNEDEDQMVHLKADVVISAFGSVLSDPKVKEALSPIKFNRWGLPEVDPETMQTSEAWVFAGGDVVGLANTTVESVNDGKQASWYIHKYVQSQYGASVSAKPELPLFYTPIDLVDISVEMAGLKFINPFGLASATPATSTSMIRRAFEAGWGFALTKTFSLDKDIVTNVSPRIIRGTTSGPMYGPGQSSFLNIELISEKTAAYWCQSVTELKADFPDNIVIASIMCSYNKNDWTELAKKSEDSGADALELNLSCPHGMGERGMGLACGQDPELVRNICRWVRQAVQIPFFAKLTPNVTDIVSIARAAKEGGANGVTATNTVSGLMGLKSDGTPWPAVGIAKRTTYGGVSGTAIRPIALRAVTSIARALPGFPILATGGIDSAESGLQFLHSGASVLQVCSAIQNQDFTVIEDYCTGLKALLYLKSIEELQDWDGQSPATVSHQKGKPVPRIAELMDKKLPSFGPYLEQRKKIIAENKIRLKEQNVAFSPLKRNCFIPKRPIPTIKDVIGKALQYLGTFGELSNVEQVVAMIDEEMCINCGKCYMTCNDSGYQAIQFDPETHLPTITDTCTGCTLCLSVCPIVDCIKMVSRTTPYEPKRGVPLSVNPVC
Conditions: cancer patients, cited from earlier work.

The nature of series [1]: Plasma uridine levels after eniluracil, LC-MS. In kind it is in vivo. The note with it: mice, eniluracil 2, 25 and 100 mg/kg, FIG. 2. As for the experimental part: While eniluracil inhibition is known to cause an increase in uracil levels due to DPD inhibition, inhibitory effects on other enzymes that anabolize fluoropyrimidines would be expected to quantitatively alter the levels of other anabolites, such as uridine. Eniluracil was administered to mice at 2 mg/kg, 25 mg/kg and 100 mg/kg. Plasma samples were taken at 0 minutes, 15 minutes, 30 minutes, 60 minutes, 2 hours, 24 hours and 48 hours. Uridine levels were determined by LC-MS technology using known techniques and standards were used to validate the assay.

The test system of series [2] is EpiDerm™ skin model (normal, human-derived epidermal keratinocytes). The series is described as follows: EpiDerm skin model dermal irritation, MTT conversion assay (ET50). The class given is cell-based. From the text: The EpiDerm™ skin model system (MatTek) was used to assess the potential dermal irritation of eniluracil alone or its formulation. This system consists of normal, human-derived epidermal keratinocytes (NHEK) which have been cultured to form a multilayered, highly differentiated model of the human epidermis. […] The EpiDerm™ system is mitotically and metabolically active. Markers of mature epidermis-specific differentiation such as pro-filaggrin, the K1/K10 cytokeratin pair, involucrin, and type I epidermal transglutaminase have been localized in the model. […] The duration of exposure resulting in a 50% decrease in MTT conversion in test article-treated EpiDerm™ cultures, relative to control cultures, was determined (ET50). Eniluracil was prepared and administered to the test system at the three final concentrations of 1000 μM, 500 μM, and 100 μM, and tested at three exposure times of 8, 20, and 24 hours. The DMSO solvent control was tested at exposure times of 8 and 24 hours. The negative control was tested at exposure times of 4 and 24 hours, and the positive control was tested at exposure times of 4 and 8 hours. The results of the trial, presented in Table 1, confirmed that the three doses of eniluracil were well-tolerated by the EpiDerm™ skin model at topical exposures of up to 24 hours. […] Hydrochloric acid in an amount equivalent to the sodium hydroxide was added to neutralize the ointment. The exposure time control was also exposed in duplicate for 4 and 24 hours. Table 2 below summarizes the ET50 results of the EpiDerm™ assay for the test articles and the positive control, using the negative control results to determine the relative viability.
On the technique in general: Formazan colour is commonly taken as a measure of viable cells.

Series [3] concerns HEK 293 cells. Nature of the series: [6-14C]-FUMP anabolite formation from [6-14C]-5-FU in HEK 293 cells, reverse phase HPLC. The class given is cell-based. The note with it: eniluracil 10 μM 1 hour, 48 hour washout, then [6-14C]-5-FU 66 μM 2 hours. As for the experimental part:
(§1) HEK 293 cells were initially treated with eniluracil (10 μM) for 1 hour. After a washout period ranging from 4-48 hours, cells were treated with [6-^14C]-5-FU (66 μM) for 2 hours at 37 degrees C. Controls were HEK 293 cells treated for 2 hours either with [6-^14C]-5-FU (66 μM) alone, or with eniluracil (10 μM) and [6-^14C]-5-FU (66 μM) co-administered together without preincubation. Reverse phase HPLC with radioactivity detection was utilized to quantify [6-^14C]-5-FU catabolites/anabolites present in cell lysates. In a separate set of experiments cytotoxicity of 5-FU at different eniluracil dose schedules was examined. HEK 293 cells were treated with a range of 5-FU concentrations for 72 hours at 37 degrees C. following 1 hour eniluracil (5 μM) preincubation, without eniluracil, or with eniluracil (5 μM) co-administered without preincubation. Cytotoxicity was assessed by the MTS proliferation assay and the EC50 values for 5-FU calculated.

The subject of a further series is Ward carcinoma tumors. Nature of the series: Antitumor activity in rats bearing Ward carcinoma tumors. In kind it is in vivo. The note with it: for Ward carcinoma tumor response: once per week for three weeks. The procedure: Rats were implanted with Ward carcinoma tumors and were treated with one of the following regimens after their tumors grew to 3,000 mg in weight as previously described (Cao et al., Cancer Res 90:1507-1510, 1993). Rats bearing 3,000 mg of tumor mass were dosed at Day 0, Day 7, and Day 14 with the following treatments.
Group A rats received no treatment. Group B rats were intraperitoneally (ip) dosed with 1 mg/kg eniluracil (time (t)=0) followed by intravenous (iv) 5 mg/kg 5-FU at t=60. Group C rats were dosed ip with 1 mg/kg eniluracil (t=0) followed by 25 mg/kg eniluracil ip at t=55 minutes and by 5 mg/kg 5-FU iv at t=60 minutes. Animals were dosed once per week for three weeks. Eniluracil was also dosed ip at 1 mg/kg to rats in Groups B & C on Days 2 and 3 of each weekly treatment. The treatment for Group C mimicked the clinical trials where high levels of eniluracil were present when 5-FU was dosed.

The conditions of series [4]: cited from earlier work.
For series [5] the following is noted: cited from earlier work. The source holds these as a separate data set.
The test system of series [6] is HEK 293 cells. The series is described as follows: Cytotoxicity of 5-FU, MTS proliferation assay. In kind it is cell-based. Conditions: Homo sapiens. The procedure: as §1

As to `C#Cc1c[nH]c(=O)[nH]c1=O` [eniluracil, 5-Ethynyluracil], the “Level of DPD, % of the predose level” value at DPD (24 hours after one dose of eniluracil) is recorded as 3%. Also, the DPD eliminated result at DPD (dose of 0.74 mg/m^2 (about 1 mg total), for prolonged periods) was “greater than 90%”. For the same molecule, in series [1], the Plasma uridine levels result is “increase in uridine levels”. Moreover, in series [2] (1000, 500 and 100 μM, topical exposures of up to 24 hours), the “Tolerability in the EpiDerm skin model” value was “well-tolerated”. Besides, the ET50 in series [2] (eniluracil 100 uM), in series [2] (eniluracil 500 uM) and in series [2] (eniluracil 1000 uM) was greater than 24 h throughout. For the same molecule, the “Increase in [6-14C]-FUMP formation versus [6-14C]-5-FU treatment alone” value in the series on HEK 293 cells [3] was 70%. Further, in the series with HEK 293 cells [3], the “Increase in [6-14C]-FUMP formation versus eniluracil and [6-14C]-5-FU co-administration” value is listed as 41%. In the series with Ward carcinoma tumors (Group C (extra 25 mg/kg eniluracil at 55 min) versus Group B), the “Effect of excess eniluracil on antitumor activity of 5-FU” value is given as “greatly diminished”. Moreover, the “5-FU-associated hand-foot syndrome toxicity” value in series [4] (Phase II and Phase III trials, oral eniluracil with 5-FU) is reported as “abrogated”. The “Toxicity in Phase I clinical trials” value in series [4] (cancer patients, eniluracil eliminating DPD activity) is recorded as “without causing toxicity”. In addition, the “Antitumor activity versus standard 5-FU regimen without eniluracil” value in series [4] (two Phase III studies, 28-day eniluracil and 5-FU regimen, colorectal cancer) is on record as “less antitumor activity”. For the same molecule, the “Elimination half-life for eniluracil” value in series [5] (humans) is on record as “about 3.5 hours”.

As for `O=c1[nH]cc(F)c(=O)[nH]1` [5-FU, 5-Fluorouracil], the “Ward carcinoma tumor response” value in the series on Ward carcinoma tumors (Group B: eniluracil 1 mg/kg ip t=0, 5-FU 5 mg/kg iv t=60 min) is “rapidly eliminated”; with Ward carcinoma tumors (Group C: eniluracil 1 mg/kg ip t=0, eniluracil 25 mg/kg ip t=55 min, 5-FU 5 mg/kg iv t=60 min), “decreased only slightly in size”. Besides, the EC50 (in general, the midpoint of the concentration-response curve) with HEK 293 cells [6] (HEK293, 72 h, read-out: EC50 of 5-FU (mean ±SE), 72 hours, 5-FU treatment alone) was found to be 311 nM; in the series with HEK 293 cells [6] (HEK293, read-out: EC50 of 5-FU (mean ±SE), 72 hours, after 1 hour eniluracil (5 μM) pre-treatment) it was 264 nM; in the series with HEK 293 cells [6] (HEK293, read-out: EC50 of 5-FU (mean ±SE), 72 hours, eniluracil (5 μM) co-administered without preincubation), 308 nM. Moreover, the “Half-life of 5-FU” value in series [5] (cancer patients, after 3.7 mg/m^2 eniluracil) was 4.5 h. In addition, the “Elimination half-life of 5-FU” value in series [5] (cancer patients, after one dose of eniluracil) was 3.5 h; in series [5] (cancer patients, without eniluracil), “about 10 minutes”.
